Test results taken from PubChem BioAssay AID328 (DTP/NCI, 2004).
“And” between values parts separate entries of the source, which are not always exact repeats. Equal values may be shown once. Inconclusive results and toxic doses are left out.

System: BDF1 mice, P388 leukemia ip, median survival T/C
Assay: NCI In Vivo Anticancer Drug Screen. Data for tumor model P388 Leukemia (intraperitoneal) in B6D2F1 (BDF1) mice
Details: endpoint: median survival time, higher = longer survival
Method in brief: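 Antitumour effect was judged in vivo: survival in drug-treated mice, normalised to that of vehicle-dosed controls, gives the reported T/C.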

[1] = dose: 50.0 mg/kg/injection, schedule: Q01DX009 (ip), vehicle: saline with Tween-80
[2] = dose: 100.0 mg/kg/injection, schedule: Q01DX009 (ip), vehicle: saline with Tween-80
[3] = dose: 200.0 mg/kg/injection, schedule: Q01DX009 (ip), vehicle: saline with Tween-80
[4] = dose: 100.0 mg/kg/injection, schedule: Q04DX003 (ip), vehicle: saline
[5] = dose: 200.0 mg/kg/injection, schedule: Q04DX003 (ip), vehicle: saline
[6] = dose: 25.0 mg/kg/injection, schedule: Q01DX009 (ip), vehicle: saline with Tween-80
[7] = dose: 100.0 mg/kg/injection, schedule: Q01DX001 (ip), vehicle: saline with Tween-80
[8] = dose: 200.0 mg/kg/injection, schedule: Q01DX001 (ip), vehicle: saline with Tween-80
[9] = dose: 400.0 mg/kg/injection, schedule: Q01DX001 (ip), vehicle: saline with Tween-80
[10] = dose: 12.5 mg/kg/injection, schedule: Q01DX009 (ip), vehicle: saline
[11] = dose: 25.0 mg/kg/injection, schedule: Q01DX009 (ip), vehicle: saline
[12] = dose: 50.0 mg/kg/injection, schedule: Q01DX009 (ip), vehicle: saline
[13] = dose: 100.0 mg/kg/injection, schedule: Q01DX009 (ip), vehicle: saline

`O=C(CC(c1ccccc1)C1CCCN(c2ccccc2)S1(=O)=O)c1ccccc1` (configuration not stated) was tested, and the T/C [1] was 109 % of control, the T/C [2] was 114 % of control and the T/C [3] was 97 % of control.
With `NCCCC(=O)O` the T/C (dose: 100.0 mg/kg/injection, schedule: Q01DX001 (ip), vehicle: saline) was 100 % of control, the T/C [4] was 109 % of control and the T/C (dose: 200.0 mg/kg/injection, schedule: Q01DX001 (ip), vehicle: saline) was 100 % of control. The T/C [5] was 86 % of control, the T/C (dose: 400.0 mg/kg/injection, schedule: Q01DX001 (ip), vehicle: saline) was 90 % of control and the T/C (dose: 400.0 mg/kg/injection, schedule: Q04DX003 (ip), vehicle: saline) was 118 % of control.
For `CCCCC(=O)OCC(=O)[C@]1(O)Cc2c(O)c3c(c(O)c2[C@@H](OC2CC(NC(=O)C(F)(F)F)C(O)C(C)O2)C1)C(=O)c1c(OC)cccc1C3=O` (some centres not stated), the T/C (dose: 5.0 mg/kg/injection, schedule: Q01DX004 (ip), vehicle: other) was 162 % of control, the T/C (dose: 10.0 mg/kg/injection, schedule: Q01DX004 (ip), vehicle: other) was 155 % of control and 189 % of control and the T/C (dose: 13.0 mg/kg/injection, schedule: Q01DX004 (ip), vehicle: saline with Tween-80) was 203 % of control. For the same compound, the T/C (dose: 20.0 mg/kg/injection, schedule: Q01DX004 (ip), vehicle: other) was 288 % of control and 187 % of control, the T/C (dose: 21.0 mg/kg/injection, schedule: Q01DX004 (ip), vehicle: saline with Tween-80) was 221 % of control and the T/C (dose: 21.6 mg/kg/injection, schedule: Q01DX004 (ip), vehicle: saline with Tween-80) was 221 % of control. For the same compound, the T/C (dose: 25.2 mg/kg/injection, schedule: Q04DX003 (ip), vehicle: other) was 175 % of control, the T/C (dose: 30.0 mg/kg/injection, schedule: Q01DX004 (ip), vehicle: other) was 263 % of control and 351 % of control and the T/C (dose: 36.0 mg/kg/injection, schedule: Q01DX004 (ip), vehicle: saline with Tween-80) was 353 % of control. The T/C (dose: 40.0 mg/kg/injection, schedule: Q01DX004 (ip), vehicle: other) was 98 % of control, the T/C (dose: 42.0 mg/kg/injection, schedule: Q04DX003 (ip), vehicle: other) was 262 % of control and the T/C (dose: 50.0 mg/kg/injection, schedule: Q01DX004 (ip), vehicle: other) was 86 % of control. For the same compound, the T/C (dose: 70.0 mg/kg/injection, schedule: Q04DX003 (ip), vehicle: other) was 506 % of control.
`CCSc1ncnc2c1ncn2CN1CCOCC1` was tested, and the T/C [6] was 86 % of control, the T/C [1] was 95 % of control and the T/C [2] was 168 % of control. The T/C (dose: 150.0 mg/kg/injection, schedule: Q01DX009 (ip), vehicle: saline) was 100 % of control and the T/C (dose: 330.0 mg/kg/injection, schedule: Q01DX009 (ip), vehicle: saline) was 110 % of control.
With `C=C(C)[C@@]12O[C@@]3(CCCCCCCCC)O[C@@H]1[C@@H]1[C@@H]4O[C@]4(CO)[C@@H](O)[C@]4(O)C(=O)C(C)=CC4[C@@]1(O3)[C@H](C)[C@H]2OC(=O)c1ccccc1` (some centres not stated) the T/C (dose: 400.0 micrograms/kg/injection, schedule: Q01DX009 (ip), vehicle: saline + alcohol) was 174 % of control.
With `CC(C)(C)C[CH2][Hg][Cl]` the T/C (dose: 3.13 mg/kg/injection, schedule: Q04DX003 (ip), vehicle: saline) was 105 % of control, the T/C (dose: 6.25 mg/kg/injection, schedule: Q04DX003 (ip), vehicle: saline) was 100 % of control and the T/C (dose: 8.25 mg/kg/injection, schedule: Q04DX003 (ip), vehicle: saline sonified) was 109 % of control. For the same compound, the T/C (dose: 12.5 mg/kg/injection, schedule: Q04DX003 (ip), vehicle: saline sonified) was 113 % of control and the T/C (dose: 18.75 mg/kg/injection, schedule: Q04DX003 (ip), vehicle: saline sonified) was 100 % of control.
`CC(=O)Nc1cc2c3c(c1)CCN3CCC2` was tested, and the T/C (dose: 3.13 mg/kg/injection, schedule: Q01DX001 (ip), vehicle: saline with Tween-80) was 95 % of control, the T/C (dose: 6.25 mg/kg/injection, schedule: Q01DX001 (ip), vehicle: saline with Tween-80) was 95 % of control and the T/C (dose: 12.5 mg/kg/injection, schedule: Q01DX001 (ip), vehicle: saline with Tween-80) was 90 % of control.
For `O=C1OC(c2ccccc2)CC1NCc1ccccc1` (configuration not stated), the T/C [7] was 100 % of control, the T/C [8] was 100 % of control and the T/C [9] was 100 % of control.
In the case of `O=C(c1cccs1)C1Cc2ccccc2C1=O` (configuration not stated), the T/C [2] is reported as 100 % of control, the T/C [3] is reported as 116 % of control and the T/C (dose: 400.0 mg/kg/injection, schedule: Q01DX009 (ip), vehicle: saline with Tween-80) is reported as 100 % of control.
For `CC=C=CCN(C)Cc1ccccc1`, the T/C [10] was 120 % of control, the T/C [11] was 100 % of control and the T/C [12] was 105 % of control and 109 % of control.
In the case of `CCOC(=O)c1sc2nc(C)cc(C)c2c1N`, the T/C (dose: 100.0 mg/kg/injection, schedule: Q01DX005 (ip), vehicle: saline with Tween-80) is reported as 100 % of control and the T/C (dose: 200.0 mg/kg/injection, schedule: Q01DX005 (ip), vehicle: saline with Tween-80) is reported as 110 % of control.
With `CCOC(=O)C1Cc2c([nH]c(=O)[nH]c2=O)OC1c1cccc(Cl)c1` (configuration not stated) the T/C (dose: 3.12 mg/kg/injection, schedule: Q01DX009 (ip), vehicle: saline with Tween-80) was 98 % of control, the T/C (dose: 6.25 mg/kg/injection, schedule: Q01DX009 (ip), vehicle: saline with Tween-80) was 96 % of control and 102 % of control and the T/C (dose: 12.5 mg/kg/injection, schedule: Q01DX009 (ip), vehicle: saline with Tween-80) was 93 % of control. The T/C [6] was 99 % of control and 107 % of control.
In the case of `COc1ccc(C(C)(C#N)Nc2ccccc2)cc1` (configuration not stated), the T/C (dose: 50.0 mg/kg/injection, schedule: Q04DX003 (ip), vehicle: saline sonified) is reported as 100 % of control, the T/C (dose: 100.0 mg/kg/injection, schedule: Q04DX003 (ip), vehicle: saline sonified) is reported as 100 % of control and the T/C (dose: 200.0 mg/kg/injection, schedule: Q04DX003 (ip), vehicle: saline sonified) is reported as 100 % of control.
With `ClCC1CCN(CCc2ccccc2)CC1` the T/C [12] was 95 % of control and the T/C [13] was 99 % of control.
With `CCc1ccc(C(=O)NN)cc1` the T/C (dose: 6.25 mg/kg/injection, schedule: Q01DX009 (ip), vehicle: saline) was 100 % of control, the T/C [10] was 97 % of control and the T/C [11] was 103 % of control. The T/C (dose: 25.0 mg/kg/injection, schedule: Q04DX003 (ip), vehicle: saline) was 94 % of control, the T/C [12] was 100 % of control and the T/C (dose: 50.0 mg/kg/injection, schedule: Q04DX003 (ip), vehicle: saline) was 92 % of control. The T/C [13] was 124 % of control, the T/C [4] was 94 % of control and the T/C (dose: 200.0 mg/kg/injection, schedule: Q01DX009 (ip), vehicle: saline) was 90 % of control. The T/C [5] was 94 % of control.
`C=C(C)c1ccccc1S(=O)(=O)c1ccccc1C(C)(C)O` was tested, and the T/C (dose: 100.0 mg/kg/injection, schedule: Q04DX003 (ip), vehicle: saline with Tween-80) was 105 % of control, the T/C (dose: 200.0 mg/kg/injection, schedule: Q04DX003 (ip), vehicle: saline with Tween-80) was 110 % of control and the T/C (dose: 400.0 mg/kg/injection, schedule: Q04DX003 (ip), vehicle: saline with Tween-80) was 114 % of control.
For `CCOC(=O)Cc1csc(NNC(=O)c2ccccc2)n1`, the T/C [1] was 108 % of control, the T/C [2] was 99 % of control and the T/C [3] was 101 % of control.
With `[N-]=[N+]=[N-]` the T/C (dose: 2.5 mg/kg/injection, schedule: Q01DX009 (ip), vehicle: saline) was 90 % of control, the T/C (dose: 5.0 mg/kg/injection, schedule: Q01DX009 (ip), vehicle: saline) was 90 % of control and the T/C (dose: 5.0 mg/kg/injection, schedule: Q04DX003 (ip), vehicle: saline) was 112 % of control. The T/C (dose: 10.0 mg/kg/injection, schedule: Q04DX003 (ip), vehicle: saline) was 95 % of control.
With `CC(=O)C(C(=O)Nc1ccccc1)c1cc(NS(=O)(=O)c2ccccc2)ccc1O` (configuration not stated) the T/C [7] was 90 % of control, the T/C [8] was 95 % of control and the T/C [9] was 86 % of control.
`CCN(CC)CC(O)CNC(=O)c1c2nc3c(C(=O)NCC(O)CN(CC)CC)ccc(C)c3oc-2c(C)c(=O)c1N` (configuration not stated) was tested, and the T/C (dose: 50.0 mg/kg/injection, schedule: Q04DX002 (ip), vehicle: saline with Tween-80) was 110 % of control and the T/C (dose: 100.0 mg/kg/injection, schedule: Q04DX002 (ip), vehicle: saline with Tween-80) was 106 % of control and 120 % of control.
For `O=[N+]([O-])c1ccc(S(=O)(=O)OCc2ccccc2OS(=O)(=O)c2ccc([N+](=O)[O-])cc2)cc1`, the T/C [6] was 109 % of control, the T/C (dose: 25.0 mg/kg/injection, schedule: Q04DX003 (ip), vehicle: Klucel (hydroxypropylcellulose) (HPC)) was 110 % of control and the T/C [1] was 114 % of control. The T/C (dose: 50.0 mg/kg/injection, schedule: Q04DX003 (ip), vehicle: Klucel (hydroxypropylcellulose) (HPC)) was 100 % of control, the T/C [2] was 114 % of control and the T/C (dose: 100.0 mg/kg/injection, schedule: Q04DX003 (ip), vehicle: Klucel (hydroxypropylcellulose) (HPC)) was 95 % of control.
